Reference: US9896440B2, “Aryl substituted heterocyclyl sulfones” (GRÜNENTHAL GMBH, priority 2014, dated 2018)

Target: T1, Human CaV2.2 channels (Homo sapiens, UniProt Q00975)
T1 construct: expressed in transfected cells; Kir2.3 also stably co-expressed
Experiment: Fluorescence assay for CaV2.2 channels using potassium depolarization to induce channel opening (FLIPR, Fluo 4)
Format: cell-based
Conditions: 3 μM test compound, 30 mM KCl assay buffer (inactivated channel state), HEK293 cells
How it was run: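 HEK293 cells stably co-expressing human CaV2.2 with α2δ and β subunits plus Kir2.3, Fluo-4 loaded; compounds preincubated 15 min at 25 °C in 1 mM or 30 mM KCl buffer (inactivated state), pH 7.4. Depolarized by KCl addition; baseline-normalized peak fluorescence (ex 480/em 535 nm) gave inhibition.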

T1 sequence (Q00975 whole entry): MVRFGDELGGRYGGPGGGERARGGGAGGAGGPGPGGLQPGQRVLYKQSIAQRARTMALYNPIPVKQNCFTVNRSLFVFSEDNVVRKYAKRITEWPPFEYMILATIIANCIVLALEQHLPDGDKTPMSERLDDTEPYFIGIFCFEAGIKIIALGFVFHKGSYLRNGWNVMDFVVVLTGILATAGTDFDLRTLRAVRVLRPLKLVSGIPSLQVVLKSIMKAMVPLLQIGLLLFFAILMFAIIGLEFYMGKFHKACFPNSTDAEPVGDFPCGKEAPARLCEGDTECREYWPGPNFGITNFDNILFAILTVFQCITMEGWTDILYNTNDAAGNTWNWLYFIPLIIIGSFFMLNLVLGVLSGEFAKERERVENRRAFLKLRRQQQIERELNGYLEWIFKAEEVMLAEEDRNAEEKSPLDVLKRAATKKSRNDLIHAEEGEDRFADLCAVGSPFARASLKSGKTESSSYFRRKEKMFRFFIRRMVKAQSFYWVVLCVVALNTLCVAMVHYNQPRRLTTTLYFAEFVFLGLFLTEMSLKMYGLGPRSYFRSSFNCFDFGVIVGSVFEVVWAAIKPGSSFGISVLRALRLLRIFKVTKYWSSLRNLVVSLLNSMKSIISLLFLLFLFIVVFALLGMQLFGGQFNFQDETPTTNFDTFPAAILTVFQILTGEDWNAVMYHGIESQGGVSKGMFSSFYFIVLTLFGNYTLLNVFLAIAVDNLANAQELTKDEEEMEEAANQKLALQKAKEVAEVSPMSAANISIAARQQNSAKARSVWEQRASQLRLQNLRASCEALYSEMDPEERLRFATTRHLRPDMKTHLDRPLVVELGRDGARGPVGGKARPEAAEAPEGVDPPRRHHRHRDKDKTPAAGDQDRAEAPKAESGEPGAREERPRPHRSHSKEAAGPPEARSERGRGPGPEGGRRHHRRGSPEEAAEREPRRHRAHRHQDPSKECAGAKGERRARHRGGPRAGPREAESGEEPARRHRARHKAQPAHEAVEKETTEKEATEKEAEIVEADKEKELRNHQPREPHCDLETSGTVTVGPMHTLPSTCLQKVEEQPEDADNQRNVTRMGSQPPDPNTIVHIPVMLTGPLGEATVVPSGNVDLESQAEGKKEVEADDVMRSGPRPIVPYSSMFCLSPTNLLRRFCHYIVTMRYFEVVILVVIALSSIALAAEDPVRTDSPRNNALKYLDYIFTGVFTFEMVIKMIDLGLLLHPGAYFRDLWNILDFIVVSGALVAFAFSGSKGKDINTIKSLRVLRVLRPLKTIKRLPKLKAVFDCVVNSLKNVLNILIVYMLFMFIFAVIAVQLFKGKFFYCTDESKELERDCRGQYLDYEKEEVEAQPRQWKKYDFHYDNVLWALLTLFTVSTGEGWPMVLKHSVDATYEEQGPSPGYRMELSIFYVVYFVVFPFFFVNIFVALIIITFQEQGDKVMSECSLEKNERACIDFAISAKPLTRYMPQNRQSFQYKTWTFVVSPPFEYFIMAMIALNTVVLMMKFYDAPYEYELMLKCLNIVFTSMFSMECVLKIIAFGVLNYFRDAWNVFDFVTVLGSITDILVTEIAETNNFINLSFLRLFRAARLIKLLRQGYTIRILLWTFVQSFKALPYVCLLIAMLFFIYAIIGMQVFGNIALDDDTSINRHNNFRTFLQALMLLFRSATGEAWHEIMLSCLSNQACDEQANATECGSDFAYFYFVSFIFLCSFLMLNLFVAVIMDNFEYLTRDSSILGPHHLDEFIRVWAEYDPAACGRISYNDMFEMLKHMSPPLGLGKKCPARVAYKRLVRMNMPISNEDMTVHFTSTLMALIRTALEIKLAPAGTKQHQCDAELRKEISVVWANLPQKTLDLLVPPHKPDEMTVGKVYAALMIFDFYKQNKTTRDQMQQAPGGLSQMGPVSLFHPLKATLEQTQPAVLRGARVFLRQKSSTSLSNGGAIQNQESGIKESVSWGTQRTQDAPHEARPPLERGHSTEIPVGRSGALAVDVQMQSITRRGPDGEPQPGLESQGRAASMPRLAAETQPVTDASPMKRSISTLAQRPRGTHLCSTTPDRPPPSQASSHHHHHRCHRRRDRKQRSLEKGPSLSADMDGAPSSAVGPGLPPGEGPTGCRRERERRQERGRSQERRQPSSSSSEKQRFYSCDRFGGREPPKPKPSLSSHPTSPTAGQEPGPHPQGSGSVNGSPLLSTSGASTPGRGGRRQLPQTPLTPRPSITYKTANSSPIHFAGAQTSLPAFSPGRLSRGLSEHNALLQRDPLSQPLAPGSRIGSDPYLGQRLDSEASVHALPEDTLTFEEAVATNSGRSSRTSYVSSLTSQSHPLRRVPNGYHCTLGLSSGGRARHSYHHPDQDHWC

SMILES | Activity Category: %-Inhib (CaV2.2) @3 μM @30 mM KCl
CC1(S(=O)(=O)c2cccc(C(F)(F)F)c2)CCOC(c2ccc(C#N)cc2S(C)(=O)=O)C1 (stereo not shown) [SC-252, 3-Methylsulfonyl-4-[4-methyl-4-[[3-(trifluoromethyl)phenyl]sulfonyl]-tetrahydro-pyran-2-yl]-benzonitrile] | B (%-Inhibition >75% up to ≦95%)
Cc1cc(S(C)(=O)=O)ccc1C1CC(C)(S(=O)(=O)c2cccc(C(F)(F)F)c2)CCO1 (stereo not shown) [SC-254, 4-Methyl-2-(2-methyl-4-methylsulfonyl-phenyl)-4-[[3-(trifluoromethyl)phenyl]sulfonyl]-tetrahydro-pyran] | A (%-Inhibition >95%)
CC1(S(=O)(=O)c2cccc(C(F)(F)F)c2)CCOC(c2ccc(C#N)c(S(C)(=O)=O)c2)C1 (stereo not shown) [SC-262, 2-Methylsulfonyl-4-[4-methyl-4-[[3-(trifluoromethyl)phenyl]sulfonyl]-tetrahydro-pyran-2-yl]-benzonitrile] | B (%-Inhibition >75% up to ≦95%)
CC1(S(=O)(=O)c2cccc(OC(F)(F)F)c2)CCOC(c2ccc(S(C)(=O)=O)c(F)c2)C1 (stereo not shown) [SC-266, 2-(3-Fluoro-4-methylsulfonyl-phenyl)-4-methyl-4-[[3-(trifluoromethyloxy)-phenyl]sulfonyl]-tetrahydro-pyran] | A (%-Inhibition >95%)
CC1(S(=O)(=O)c2cccc(C(F)(F)F)c2)CCOC(c2ccc(S(C)(=O)=O)c(C#N)c2)C1 (stereo not shown) [SC-268, 2-Methylsulfonyl-5-[4-methyl-4-[[3-(trifluoromethyl)phenyl]sulfonyl]-tetrahydro-pyran-2-yl]-benzonitrile] | B (%-Inhibition >75% up to ≦95%)
CC1(S(=O)(=O)c2cccc(C(F)F)c2)CCOC(c2ccc(S(C)(=O)=O)c(F)c2)C1 (stereo not shown) [SC-269, 4-[[3-(Difluoro-methyl)-phenyl]sulfonyl]-2-(3-fluoro-4-methylsulfonyl-phenyl)-4-methyl-tetrahydro-pyran] | C (%-Inhibition >40% up to ≦75%)
CC1(S(=O)(=O)c2cccc(C(F)F)c2)CCOC(c2ccc(S(C)(=O)=O)c(F)c2)C1 (stereo not shown) [SC-270, 4-[[3-(Difluoro-methyl)-phenyl]sulfonyl]-2-(3-fluoro-4-methylsulfonyl-phenyl)-4-methyl-tetrahydro-pyran] | B (%-Inhibition >75% up to ≦95%)
CC1(S(=O)(=O)c2cccc(C(F)(F)F)c2)CCOC(c2ccc(S(C)(=O)=O)cc2C#N)C1 (stereo not shown) [SC-276, 5-Methylsulfonyl-2-[4-methyl-4-[[3-(trifluoromethyl)phenyl]sulfonyl]-tetrahydro-pyran-2-yl]-benzonitrile] | A (%-Inhibition >95%)
CC1(S(=O)(=O)c2cccc(C(F)(F)F)c2)CCOC(c2cc(S(C)(=O)=O)ccc2C2CC2)C1 (stereo not shown) [SC-278, 2-(2-Cyclopropyl-5-methylsulfonyl-phenyl)-4-methyl-4-[[3-(trifluoromethyl)phenyl]sulfonyl]-tetrahydro-pyran] | B (%-Inhibition >75% up to ≦95%)
Cc1nc2cc(C3CC(C)(S(=O)(=O)c4cccc(C(F)(F)F)c4)CCO3)ccc2o1 (stereo not shown) [SC-280, 2-Methyl-5-[4-methyl-4-[[3-(trifluoromethyl)phenyl]sulfonyl]-tetrahydro-pyran-2-yl]-benzooxazole] | A (%-Inhibition >95%)
C[S+]([O-])c1ccc(C2CC(C)(S(=O)(=O)c3cccc(C(F)(F)F)c3)CCO2)c(F)c1 (stereo not shown) [SC-281, 2-[2-Fluoro-4-(methylsulfinyl)-phenyl]-4-methyl-4-[[3-(trifluoromethyl)phenyl]sulfonyl]-tetrahydro-pyran] | B (%-Inhibition >75% up to ≦95%)
C[S+]([O-])c1ccc(C2CC(C)(S(=O)(=O)c3cccc(C(F)(F)F)c3)CCO2)c(F)c1 (stereo not shown) [SC-282, 2-[2-Fluoro-4-(methylsulfinyl)-phenyl]-4-methyl-4-[[3-(trifluoromethyl)phenyl]sulfonyl]-tetrahydro-pyran] | B (%-Inhibition >75% up to ≦95%)
C[S+]([O-])c1ccc(C2CC(C)(S(=O)(=O)c3cccc(C(F)(F)F)c3)CCO2)c(F)c1 (stereo not shown) [SC-283, 2-[2-Fluoro-4-(methylsulfinyl)-phenyl]-4-methyl-4-[[3-(trifluoromethyl)phenyl]sulfonyl]-tetrahydro-pyran] | B (%-Inhibition >75% up to ≦95%)
C[S+]([O-])c1ccc(C2CC(C)(S(=O)(=O)c3cccc(C(F)(F)F)c3)CCO2)c(F)c1 (stereo not shown) [SC-284, 2-[2-Fluoro-4-(methylsulfinyl)-phenyl]-4-methyl-4-[[3-(trifluoromethyl)phenyl]sulfonyl]-tetrahydro-pyran] | C (%-Inhibition >40% up to ≦75%)
C[S+]([O-])c1cc(Cl)ccc1C1CC(C)(S(=O)(=O)c2cccc(C(F)(F)F)c2)CCO1 (stereo not shown) [SC-288, 2-[4-Chloro-2-(methylsulfinyl)-phenyl]-4-methyl-4-[[3-(trifluoromethyl)phenyl]sulfonyl]-tetrahydro-pyran] | B (%-Inhibition >75% up to ≦95%)

Same assay, conditions: HEK293, 3 μM test compound, 30 mM KCl assay buffer (inactivated channel state), HEK293 cells; read-out: Activity Category: %-Inhib (CaV2.2) @3 μM @30 mM KCl

SMILES | inhibition at 3 µM [%]
CC1(S(=O)(=O)c2cccc(C(F)(F)F)c2)CCOC(c2ccc(C#N)cc2S(C)(=O)=O)C1 (stereo not shown) [SC-251, 3-Methylsulfonyl-4-[4-methyl-4-[[3-(trifluoromethyl)phenyl]sulfonyl]-tetrahydro-pyran-2-yl]-benzonitrile] | > 95
Cc1cc(S(C)(=O)=O)ccc1C1CC(C)(S(=O)(=O)c2cccc(C(F)(F)F)c2)CCO1 (stereo not shown) [SC-253, 4-Methyl-2-(2-methyl-4-methylsulfonyl-phenyl)-4-[[3-(trifluoromethyl)phenyl]sulfonyl]-tetrahydro-pyran] | 75 to 95
CC1(S(=O)(=O)c2cccc(C(F)(F)F)c2)CCOC(c2ccc(S(C)(=O)=O)cc2C(F)(F)F)C1 (stereo not shown) [SC-255, 4-Methyl-2-[4-methylsulfonyl-2-(trifluoromethyl)-phenyl]-4-[[3-(trifluoromethyl)phenyl]sulfonyl]-tetrahydro-pyran] | > 95
CC1(S(=O)(=O)c2cccc(C(F)(F)F)c2)CCOC(c2cc(C#N)cc(S(C)(=O)=O)c2)C1 (stereo not shown) [SC-257, 3-Methylsulfonyl-5-[4-methyl-4-[[3-(trifluoromethyl)phenyl]sulfonyl]-tetrahydro-pyran-2-yl]-benzonitrile] | 75 to 95
CC1(S(=O)(=O)c2cccc(C(F)(F)F)c2)CCOC(c2ccc3c(c2)OC(F)(F)O3)C1 (stereo not shown) [SC-259, 2,2-Difluoro-5-[4-methyl-4-[[3-(trifluoromethyl)phenyl]sulfonyl]-tetrahydro-pyran-2-yl]-1,3-benzodioxole] | > 95
CC1(S(=O)(=O)c2cccc(C(F)(F)F)c2)CCOC(c2ccc(C#N)c(S(C)(=O)=O)c2)C1 (stereo not shown) [SC-261, 2-Methylsulfonyl-4-[4-methyl-4-[[3-(trifluoromethyl)phenyl]sulfonyl]-tetrahydro-pyran-2-yl]-benzonitrile] | > 95
CC1(S(=O)(=O)c2cccc(C(F)(F)F)c2)CCOC(c2ccc3c(c2)CCO3)C1 (stereo not shown) [SC-263, 5-[4-Methyl-4-[[3-(trifluoromethyl)phenyl]sulfonyl]-tetrahydro-pyran-2-yl]-2,3-dihydro-benzofuran] | > 95
CC1(S(=O)(=O)c2cccc(OC(F)(F)F)c2)CCOC(c2ccc(S(C)(=O)=O)c(F)c2)C1 (stereo not shown) [SC-265, 2-(3-Fluoro-4-methylsulfonyl-phenyl)-4-methyl-4-[[3-(trifluoromethyloxy)-phenyl]sulfonyl]-tetrahydro-pyran] | 75 to 95
CC1(S(=O)(=O)c2cccc(C(F)(F)F)c2)CCOC(c2ccc(S(C)(=O)=O)c(C#N)c2)C1 (stereo not shown) [SC-267, 2-Methylsulfonyl-5-[4-methyl-4-[[3-(trifluoromethyl)phenyl]sulfonyl]-tetrahydro-pyran-2-yl]-benzonitrile] | > 95
CC(C)c1cccc(S(=O)(=O)C2(C)CCOC(c3ccc(S(C)(=O)=O)c(F)c3)C2)c1 (stereo not shown) [SC-271, 2-(3-Fluoro-4-methylsulfonyl-phenyl)-4-[(3-isopropyl-phenyl)sulfonyl]-4-methyl-tetrahydro-pyran] | > 95
CC1(S(=O)(=O)c2cccc(C(F)(F)F)c2)CCOC(c2cc(S(C)(=O)=O)ccc2C#N)C1 (stereo not shown) [SC-273, 4-Methylsulfonyl-2-[4-methyl-4-[[3-(trifluoromethyl)phenyl]sulfonyl]-tetrahydro-pyran-2-yl]-benzonitrile] | 75 to 95
CC1(S(=O)(=O)c2cccc(C(F)(F)F)c2)CCOC(c2ccc(S(C)(=O)=O)cc2C#N)C1 (stereo not shown) [SC-275, 5-Methylsulfonyl-2-[4-methyl-4-[[3-(trifluoromethyl)phenyl]sulfonyl]-tetrahydro-pyran-2-yl]-benzonitrile] | 75 to 95
CC1(S(=O)(=O)c2cccc(C(F)(F)F)c2)CCOC(c2cc(S(C)(=O)=O)ccc2C2CC2)C1 (stereo not shown) [SC-277, 2-(2-Cyclopropyl-5-methylsulfonyl-phenyl)-4-methyl-4-[[3-(trifluoromethyl)phenyl]sulfonyl]-tetrahydro-pyran] | > 95
Cc1nc2cc(C3CC(C)(S(=O)(=O)c4cccc(C(F)(F)F)c4)CCO3)ccc2o1 (stereo not shown) [SC-279, 2-Methyl-5-[4-methyl-4-[[3-(trifluoromethyl)phenyl]sulfonyl]-tetrahydro-pyran-2-yl]-benzooxazole] | 75 to 95
CCc1nc2cc(C3CC(C)(S(=O)(=O)c4cccc(C(F)(F)F)c4)CCO3)ccc2o1 (stereo not shown) [SC-285, 2-Ethyl-5-[4-methyl-4-[[3-(trifluoromethyl)phenyl]sulfonyl]-tetrahydro-pyran-2-yl]-benzooxazole] | 75 to 95
CC1(S(=O)(=O)c2cccc(C(F)(F)F)c2)CCOC(c2ccc(S(=O)(=O)CCO)cc2)C1 (stereo not shown) [SC-286, 2-[[4-[4-Methyl-4-[[3-(trifluoromethyl)phenyl]sulfonyl]-tetrahydro-pyran-2-yl]-phenyl]sulfonyl]-ethanol] | 75 to 95
